Results reported in patent publication US20050002868A1, “Method of treatment of a female suffering from androgen insufficiency” (Acrux DDS Pty Ltd., priority 2003, published 2005).

Assay: Open label, randomised two-way cross-over pharmacokinetic study of free serum testosterone after daily transdermal spray for 5 days
Format: in vivo, women
Protocol: The study was a single centre, open label pharmacokinetic study, with a randomised, two-way, cross-over design. The two treatment periods were 5 days with an eight day washout between treatments. Intensive blood sampling was performed on day 5 of each treatment period for pharmacokinetic analysis. The treatments consisted of daily application of 2×91 μL sprays for 5 days, either applied to the abdomen or forearm. Free serum testosterone concentration profiles were measured over 24 hours after daily administration of transdermal testosterone for 5 days to 6 healthy surgically menopausal women stabilized on oral oestrogen therapy. HPLC separation (followed by RIA) and equilibrium dialysis were used to measure free testosterone (Esoterix Inc.).

C[C@]12CC[C@H]3[C@@H](CCC4=CC(=O)CC[C@@]43C)[C@@H]1CC[C@@H]2O [testosterone]
average serum concentrations of free testosterone, forearm compared with abdomen (application to the forearm, day 5, FIG. 1): significantly higher | Steady-state concentrations of free testosterone (daily application for 5 days, abdomen or forearm): attained on day 5 | variation of free testosterone serum concentrations, abdomen compared with forearm (dose application to the abdomen, day 5, FIG. 1): considerably less variation
